Data from US20240307374A1, “FORMULATION OF FURIN INHIBITOR FOR INHALATION” (BP ASSET V, INC., priority 2021, published 2024).
“Also recorded” adds a separate entry of the source.

How the values were obtained:
[1] = Tolerability (weight, clinical observations, gross pathology) in the Phase I study; assay type: in vivo, Sigmodon hispidus cotton rats
Excerpt: (§1) Fifty (50) inbred, 6-8 week old, Sigmodon hispidus female and male cotton rats (source: Sigmovir Biosystems, Inc., Rockville MD) were maintained and handled under veterinary supervision in accordance with the National Institutes of Health guidelines and Sigmovir Institutional Animal Care and Use Committee's approved animal study protocol (IACUC Protocol #15). Fifteen animals were used in Phase I and 35 animals in Phase II studies. Each group of 5 animals included 3 females (the first three animals in each group) and 2 males (the last 2 animals in each group). Groups of even number of animals included equal number of males and females. Cotton rats were housed in clear polycarbonate cages and provided with standard rodent chow (Harlan #7004) and tap water ad lib.
(§2) Step 1. Divided 15 young S. hispidus (6-8 week old) between 3 groups (3 females and 2 males per group). Eartaged, weighed, and eyebleed all animals under isoflurane anesthesia for serum and plasma. Treated all animals intranasally with the solution indicated in Table 8-1 below, 5 0 μl/100 g animal (administered in both nostrils).
(§3) Step 2. Measured weight, collected clinical observations (e.g., changes in appearance, movement, posture), and repeated treatments on all animals as in Step 1.
Step 5. Measured weight, collected clinical observations, and repeated treatment on all animals as described in Step 1. […]

[2] = Phase I PK study, intranasal, cotton rats (plasma, lungs, BAL); assay type: in vivo, Sigmodon hispidus cotton rats
Excerpt: as §1
To prepare excipient solution, 125 mg of citric acid anhydrous and 972 mg of lactose anhydrous were dissolved in water by adding 6 ml to the powder. The solution was vortexed. Final volume was adjusted to 10 mL with water for final concentration of 65 mM citric acid anhydrous and 284 mM lactose anhydrous. The solution was stored at 4±2° C.
as §2, §3
Step 3. Measured weight, collected clinical observations (e.g., changes in appearance, movement, posture), and repeated treatments on all animals as in Step 1.
Step 4. Measured weight, collected clinical observations (e.g., changes in appearance, movement, posture), and repeated treatments on all animals as in Step 1.
Step 5. Measured weight, collected clinical observations, and repeated treatment on all animals as described in Step 1. After 1 h Step 6, terminally bled one animal from each group, followed by the necropsy with gross pathology examination and collection of BAL (right lung) and lung samples (left lung) for the PK assessment. After 3 h Step 7, terminally bled the second animal from each group, followed by the necropsy with gross pathology examination and collection of BAL and lung samples for the PK assessment.
Step 8. Terminally bled the third animal from each group, followed by the necropsy with gross pathology examination and collection of BAL and lung samples for the PK assessment.
Step 9. […]
Step 10. Measured weight and collected clinical observations on the remaining animals. […]

[3] = XRPD before and after drying (form stability on drying); assay type: physicochemical; details: wet cake, vacuum drying at RT for about 3 hours

Structure (SMILES) | noticeable effect (blood clotting) ([1]; highest dose 1 mg/kg/day, one animal, terminal bleed) | tolerability ([1]; intranasal QD for 5 consecutive days, 0.1, 0.3, 1 mg/kg per day) | dose dependence of concentration in plasma and lungs ([2]; 0.1, 0.3, 1 mg/kg, highest level with 1 mg/kg 1 hr post-treatment) | persistence of level in plasma and lungs ([2]; after last intranasal dose, depending on the dose) | detection in BALF ([2]; intranasal QD for 5 days, 0.1, 0.3, 1 mg/kg per day) | detection in plasma and lungs ([2]; intranasal QD for 5 days, 0.1, 0.3, 1 mg/kg per day, 1-24 h after last dose) | form change on drying (XRPD) [3]
CC(=O)NCC1CCN(Cc2cc(Oc3ccc(N4CCN(CCC(=O)O)CC4)nc3)nc(-c3cc(Cl)cc(Cl)c3)c2)CC1 [Compound (I)] | apparent increase in blood clotting time in one of the animals | well tolerated | dose-dependent effect | remained elevated for several hours | much less so in BALF | detectable in the plasma and lungs | –
CC(=O)NCC1CCN(Cc2cc(Oc3ccc(N4CCN(CCC(=O)O)CC4)nc3)nc(-c3cc(Cl)cc(Cl)c3)c2)CC1 [Freeform Type C] | – | – | – | – | – | – | transformed to freeform Type A; also recorded: Transferred to freeform Type A after drying at RT
